According to US8816119B2, “Arylamide derivatives having antiandrogenic properties” (Medeia Therapeutics Ltd, priority 2010, dated 2014):
Substitutions are numbered along the chain they refer to.

What was measured:
Type in all cases: cell-based
[1] = target: T1, W741L AR (Homo sapiens, UniProt P10275, W742L); experiment: Agonism in W741L mutant AR, AR transactivation assay in COS-1 cells, test compounds alone; details: 10 microM, compound alone
T1 construct: expressed in transfected cells; host or cells: COS-1
T1 sequence (P10275 1-920 W742L): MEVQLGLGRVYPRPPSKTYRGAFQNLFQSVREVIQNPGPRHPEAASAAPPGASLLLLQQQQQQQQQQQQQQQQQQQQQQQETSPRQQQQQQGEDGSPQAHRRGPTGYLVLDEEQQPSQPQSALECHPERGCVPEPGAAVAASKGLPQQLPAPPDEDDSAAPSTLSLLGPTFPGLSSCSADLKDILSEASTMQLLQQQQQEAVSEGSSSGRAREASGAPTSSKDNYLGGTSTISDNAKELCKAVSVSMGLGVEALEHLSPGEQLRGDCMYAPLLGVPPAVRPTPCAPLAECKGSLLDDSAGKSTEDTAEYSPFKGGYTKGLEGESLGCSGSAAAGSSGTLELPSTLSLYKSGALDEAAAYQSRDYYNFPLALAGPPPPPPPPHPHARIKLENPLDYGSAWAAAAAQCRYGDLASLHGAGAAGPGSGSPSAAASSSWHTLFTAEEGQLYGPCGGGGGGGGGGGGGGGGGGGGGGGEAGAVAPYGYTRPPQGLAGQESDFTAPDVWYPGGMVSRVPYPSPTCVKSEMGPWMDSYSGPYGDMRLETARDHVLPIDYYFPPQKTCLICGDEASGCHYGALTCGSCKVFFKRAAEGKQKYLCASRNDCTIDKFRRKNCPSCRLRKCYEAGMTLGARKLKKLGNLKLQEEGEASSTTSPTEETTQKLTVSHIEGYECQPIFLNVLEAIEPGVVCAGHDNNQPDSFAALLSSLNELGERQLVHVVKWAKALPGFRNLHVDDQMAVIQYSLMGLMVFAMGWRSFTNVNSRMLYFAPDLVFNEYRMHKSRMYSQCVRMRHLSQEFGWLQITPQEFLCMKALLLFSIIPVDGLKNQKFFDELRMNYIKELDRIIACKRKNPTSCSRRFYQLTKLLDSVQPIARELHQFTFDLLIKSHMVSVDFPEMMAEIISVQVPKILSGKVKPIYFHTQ
Experimental: COS-1 (American Type Culture Collection) were cultured in DMEM supplemented with 10% FBS, penicillin (6.25 U/ml) and streptomycin (6.25 μg/ml) and seeded onto 48-well plates (50 000 cells/well) one day before transfection. Transfection media containing 2.5% charcoal-stripped FBS in DMEM was changed on cells 4 h prior to transfection. Cells were transfected with 50 ng of reporter gene plasmid (pPB-286/+32-LUC; PB, probasin promoter), 5 ng of AR expression plasmid (pSG5-hAR), and 5 ng of pCMVβ (an internal, beta-galactosidase control for transfection efficiency and cell growth) using TranslT-LT1 reagent (Mirus Bio Corporation) according to the manufacturer's instructions. […] After 18 h, reporter gene activities (LUC and beta-galactosidase) were determined according to standard methods. The data are expressed as relative LUC activity (luciferase light units divided by beta-galactosidase A420nm to control for transfection efficiency) of a given compound in relation to the activity of a reference test item (=100%).
Agonism in W741L AR of compounds of the present invention was measured in AR transactivation assay in COS-1 cells as described above except that AR expression vector harboring the W741L mutation was used instead of the WT AR. The transfected cells were exposed to test compounds alone.

[2] = target: T2, T877A AR (Homo sapiens, UniProt P10275, T878A); experiment: Agonism in T877A mutant AR, AR transactivation assay in COS-1 cells, test compounds alone; details: 10 microM, compound alone
T2 construct: expressed in transfected cells; host or cells: COS-1
T2 sequence (P10275 1-920 T878A): T1 sequence (P10275 1-920 W742L) with L742W, T878A

[3] = target: T3, WT AR (Homo sapiens, UniProt P10275); experiment: Antagonism in WT AR, AR transactivation reporter gene assay in COS-1 cells, competitive setting with 50 nM testosterone; details: 18 h
T3 construct: expressed in transfected cells; host or cells: COS-1
T3 sequence (P10275 1-920): T1 sequence (P10275 1-920 W742L) with L742W
Experimental: After 18 h, reporter gene activities (LUC and beta-galactosidase) were determined according to standard methods. The data are expressed as relative LUC activity (luciferase light units divided by beta-galactosidase A420nm to control for transfection efficiency) of a given compound in relation to the activity of a reference test item (=100%).
Antagonism in WT AR of compounds of the present invention was measured in AR transctivation assay in COS-1 cells in competitive setting using testosterone as a reference agonist as described above. […] Relative LUC activity representing AR-dependent transcription obtained by exposure to testosterone alone was set to 100%.

Q: Which “Relative LUC activity (%) in W741L AR in relation to BIC (100%)” value (from here on “Relative LUC activity (%) in W741L AR”) [1] does the source give for CCS(=O)(=O)CC(O)(C(=O)Nc1ccc(C#N)c(C(F)(F)F)c1)c1ccc(F)cc1 (stereo not drawn) [Example 1, N-[4-cyano-3-(trifluoro-methyl)phenyl]-3-(ethanesulfonyl)-2-(4-fluorophenyl)-2-hydroxypropanamide] here?
A: 12%

Q: What about the “Relative LUC activity (%) in T877A AR in relation to testosterone (100%)” value (shortened to “Relative LUC activity (%) in T877A AR”) [2] of the same compound?
A: 14%

Q: Which “Relative LUC activity (%) indicating residual androgen activity in relation to testosterone (100%)” value ([3]; 1 microM compound) does the source give for CC(C)CCS(=O)(=O)CC(O)(C(=O)Nc1ccc(C#N)c(C(F)(F)F)c1)c1ccc(F)cc1 (stereo not drawn) [Example 2, N-[4-cyano-3-(trifluoromethyl)phenyl]-2-(4-fluorophenyl)-2-hydroxy-3-[(3-methylbutane)-sulfonyl]propanamide] here?
A: 12%

Q: What about the “Relative LUC activity (%) indicating residual androgen activity in relation to testosterone (100%)” value ([3]; 10 microM compound) of the same compound?
A: 3%

Q: Which “Relative LUC activity (%) in W741L AR” value [1] does the source give for N#Cc1ccc(NC(=O)C(O)(CS(=O)(=O)Cc2ccco2)c2ccc(C(F)(F)F)cc2)cc1C(F)(F)F (stereo not drawn) [Example 3, N-[4-cyano-3-(trifluoro-methyl)phenyl]-3-[(furan-2-ylmethane)sulfonyl]-2-hydroxy-2-[4-(trifluoromethyl)phenyl]propanamide] here?
A: 4%

Q: What about the “Relative LUC activity (%) indicating residual androgen activity in relation to testosterone (100%)” value ([3]; 1 microM compound) of the same compound?
A: 17%

Q: And the “Relative LUC activity (%) indicating residual androgen activity in relation to testosterone (100%)” value ([3]; 10 microM compound)?
A: 3%

Q: What about the “Relative LUC activity (%) in T877A AR” value [2] of the same compound?
A: 3%

Q: Which “Relative LUC activity (%) in W741L AR” value [1] does the source give for N#Cc1ccc(NC(=O)C(O)(CS(=O)(=O)c2ccc(F)cc2)c2ccc(C(F)(F)F)cc2)cc1Cl (stereo not drawn) [Example 4, N-(3-chloro-4-cyanophenyl)-3-[(4-fluorobenzene)sulfonyl]-2-hydroxy-2-[4-(trifluoromethyl)phenyl]propanamide] here?
A: 8%

Q: What about the “Relative LUC activity (%) indicating residual androgen activity in relation to testosterone (100%)” value ([3]; 1 microM compound) of the same compound?
A: 21%

Q: What about the “Relative LUC activity (%) indicating residual androgen activity in relation to testosterone (100%)” value ([3]; 10 microM compound) of the same compound?
A: 1%

Q: What about the “Relative LUC activity (%) in T877A AR” value [2] of the same compound?
A: 1%

Q: With CCS(=O)(=O)CC(O)(C(=O)Nc1ccc(C#N)c(Cl)c1)c1ccc(F)c(F)c1 (stereo not drawn) [Example 5, N-(3-chloro-4-cyanophenyl)-2-(3,4-difluorophenyl)-3-(ethanesulfonyl)-2-hydroxypropanamide] as the compound, how does the “Relative LUC activity (%) in W741L AR” value [1] read?
A: 18%

Q: And the “Relative LUC activity (%) in T877A AR” value [2]?
A: 9%

Q: Which results are given for N#Cc1ccc(NC(=O)C(O)(CS(=O)(=O)c2ccc(F)c(F)c2)c2ccc(F)cc2)cc1Cl (stereo not drawn) [Example 6, N-(3-chloro-4-cyanophenyl)-3-[(3,4-difluorobenzene)sulfonyl]-2-(4-fluorophenyl)-2-hydroxypropanamide]?
A: Relative LUC activity (%) indicating residual androgen activity in relation to testosterone (100%) ([3]; 1 microM compound): 7%; Relative LUC activity (%) indicating residual androgen activity in relation to testosterone (100%) ([3]; 10 microM compound): 5%

Q: What does the source list for CCS(=O)(=O)CC(O)(C(=O)Nc1ccc(C#N)c(C(F)(F)F)c1)c1ccc(C(F)(F)F)cc1 (stereo not drawn) [Example 17, N-[4-cyano-3-(trifluoromethyl)phenyl]-3-(ethanesulfonyl)-2-[4-(trifuoromethyl)phenyl]-2-hydroxypropanamide]?
A: Relative LUC activity (%) indicating residual androgen activity in relation to testosterone (100%) ([3]; 1 microM compound): 18%; Relative LUC activity (%) indicating residual androgen activity in relation to testosterone (100%) ([3]; 10 microM compound): 3%

Q: What does the source list for COc1ccc(C(O)(CS(=O)(=O)c2ccc(F)c(F)c2)C(=O)Nc2ccc(C#N)c(C(F)(F)F)c2)cc1F (stereo not drawn) [Example 22, N-(4-cyano-3-(trifluoromethyl)phenyl)-3-[(3,4-difluorobenzene)sulfonyl]-2-hydroxy-2-[3-fluoro-4-(methoxy)phenyl]propanamide]?
A: Relative LUC activity (%) indicating residual androgen activity in relation to testosterone (100%) ([3]; 1 microM compound): 9%; Relative LUC activity (%) indicating residual androgen activity in relation to testosterone (100%) ([3]; 10 microM compound): 3%

Q: COc1ccc(C(O)(CS(=O)(=O)c2cccc(F)c2)C(=O)Nc2ccc(C#N)c(Cl)c2)cc1F (stereo not drawn) [Example 33, N-(3-chloro-4-cyanophenyl)-2-(3-fluoro-4-methoxyphenyl)-3-[(3-fluorobenzene)sulfonyl]-2-hydroxypropanamide] was tested. Which “Relative LUC activity (%) indicating residual androgen activity in relation to testosterone (100%)” value ([3]; 1 microM compound) did it give?
A: 5%

Q: What about the “Relative LUC activity (%) indicating residual androgen activity in relation to testosterone (100%)” value ([3]; 10 microM compound) of the same compound?
A: 1%

Q: What does the source list for N#Cc1ccc(NC(=O)C(O)(CS(=O)(=O)c2cccc(F)c2)c2ccc(F)c(F)c2)cc1C(F)(F)F (stereo not drawn) [Example 39, N-[4-cyano-3-(trifluoromethyl)phenyl]-2-(3,4-difluorophenyl)-3-[(3-fluorobenzene)sulfonyl]-2-hydroxypropanamide]?
A: Relative LUC activity (%) indicating residual androgen activity in relation to testosterone (100%) ([3]; 1 microM compound): 14%; Relative LUC activity (%) indicating residual androgen activity in relation to testosterone (100%) ([3]; 10 microM compound): 2%
